US20080009418A1, “Selective Inhibitors” (Alchemia LTD., priority 2004, published 2008)

Experiments:
Mouse urotensin (mUR2) = target: T1, Mouse urotensin (mUR2) (Mus musculus, UniProt Q8VIH9); assay: Radioligand binding, mouse urotensin mUR2 membranes, FlashPlate, [125I]-Urotensin II; settings: compound at 10 μM; [125I]-Urotensin II, mouse mUR2 membranes
T1 construct: purchased Perkin Elmer Biosignal
T1 sequence (Q8VIH9 1-385): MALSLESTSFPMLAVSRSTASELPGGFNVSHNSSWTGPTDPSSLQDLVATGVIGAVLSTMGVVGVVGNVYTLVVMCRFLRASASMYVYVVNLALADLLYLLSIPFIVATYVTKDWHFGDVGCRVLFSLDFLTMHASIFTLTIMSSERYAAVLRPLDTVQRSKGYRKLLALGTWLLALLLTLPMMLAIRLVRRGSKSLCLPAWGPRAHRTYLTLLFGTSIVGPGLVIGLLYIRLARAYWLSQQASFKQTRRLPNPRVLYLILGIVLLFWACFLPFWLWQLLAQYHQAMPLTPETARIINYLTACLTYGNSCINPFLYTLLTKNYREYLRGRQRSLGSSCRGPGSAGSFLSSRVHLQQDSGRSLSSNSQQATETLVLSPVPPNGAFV
Summary of the method: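 Cloned mouse urotensin (mUR2) receptor membranes from Perkin Elmer Biosignal were immobilized in FlashPlate microplates using a proprietary coating. Each well got 19.5 μl buffer, then 0.5 μl of DMSO, reference ligand, or compound. Adding 5 μl of [125I]-Urotensin II, diluted to 5× final concentration in binding buffer, started binding. Plates were sealed with TopSeal-A and incubated 1 hour at room temperature in the dark. Wells were counted for 30 seconds each on a TopCount after a 60-second delay, and percentage inhibition was calculated.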

[1] = target: T2, Human neuropeptide Y (NPY-Y1) (Homo sapiens, UniProt P25929); assay: Radioligand binding, human neuropeptide Y NPY-Y1 membranes, FlashPlate, [125I]-PYY; settings: compound at 10 μM; [125I]-PYY, human NPY-Y1 membranes
T2 construct: purchased Perkin Elmer Biosignal
T2 sequence (P25929 1-384): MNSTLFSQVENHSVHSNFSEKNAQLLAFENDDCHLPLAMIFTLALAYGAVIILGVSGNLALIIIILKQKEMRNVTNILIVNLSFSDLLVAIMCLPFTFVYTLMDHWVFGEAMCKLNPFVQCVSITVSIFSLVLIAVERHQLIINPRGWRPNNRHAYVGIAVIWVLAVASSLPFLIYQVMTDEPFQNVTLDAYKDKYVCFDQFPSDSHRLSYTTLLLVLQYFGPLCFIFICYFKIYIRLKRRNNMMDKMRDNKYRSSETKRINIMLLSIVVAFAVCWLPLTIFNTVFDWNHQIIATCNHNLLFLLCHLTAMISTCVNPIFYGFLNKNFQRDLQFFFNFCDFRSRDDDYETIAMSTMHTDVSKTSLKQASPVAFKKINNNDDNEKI
Summary of the method: (§1)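 Cloned human receptor membranes were coated onto FlashPlate wells and incubated with radioligand and compound (added from a 0.5 mM DMSO daughter plate) for 1 hour at room temperature in the dark. Scintillation counting gave percent inhibition, with DMSO defining total and reference ligand defining non-specific binding.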

Human neurokinin (NK1) = target: T3, Human neurokinin (NK1) (Homo sapiens, UniProt P25103); assay: Radioligand binding, human neurokinin NK1 membranes, filtration, [125I]-Substance P; settings: compound at 10 μM; [125I]-Substance P, human NK1 membranes
T3 construct: purchased Perkin Elmer Biosignal
T3 sequence (P25103 whole entry): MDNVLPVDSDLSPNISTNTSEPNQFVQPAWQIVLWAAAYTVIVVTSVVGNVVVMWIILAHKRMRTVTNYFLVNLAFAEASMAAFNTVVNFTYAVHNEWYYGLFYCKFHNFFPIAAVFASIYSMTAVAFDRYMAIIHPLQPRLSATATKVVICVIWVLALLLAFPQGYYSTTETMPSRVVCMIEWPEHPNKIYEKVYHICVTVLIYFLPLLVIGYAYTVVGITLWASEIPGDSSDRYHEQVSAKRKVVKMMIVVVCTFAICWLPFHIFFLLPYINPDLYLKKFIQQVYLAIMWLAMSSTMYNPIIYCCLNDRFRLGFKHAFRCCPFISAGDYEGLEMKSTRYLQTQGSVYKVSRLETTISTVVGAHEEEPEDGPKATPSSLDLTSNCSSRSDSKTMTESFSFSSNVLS
Summary of the method: (§2)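 Membranes from cloned human receptors were incubated with compound and radioligand for 1 hour at room temperature. Bound ligand was collected on 0.3% PEI-soaked filters, washed with cold 50 mM Tris-HCl pH 7.4, and counted by scintillation. Percent inhibition was computed against DMSO totals and reference-ligand nonspecific wells.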

Human μ-opioid (MOP) = target: T4, Human μ-opioid (MOP) (Homo sapiens, UniProt P35372); assay: Radioligand binding, human μ-opioid (MOP) membranes, FlashPlate, [3H]-Naloxone; settings: compound at 10 μM, [3H]-Naloxone, human MOP membranes
T4 construct: purchased Perkin Elmer Biosignal
T4 sequence (P35372 whole entry): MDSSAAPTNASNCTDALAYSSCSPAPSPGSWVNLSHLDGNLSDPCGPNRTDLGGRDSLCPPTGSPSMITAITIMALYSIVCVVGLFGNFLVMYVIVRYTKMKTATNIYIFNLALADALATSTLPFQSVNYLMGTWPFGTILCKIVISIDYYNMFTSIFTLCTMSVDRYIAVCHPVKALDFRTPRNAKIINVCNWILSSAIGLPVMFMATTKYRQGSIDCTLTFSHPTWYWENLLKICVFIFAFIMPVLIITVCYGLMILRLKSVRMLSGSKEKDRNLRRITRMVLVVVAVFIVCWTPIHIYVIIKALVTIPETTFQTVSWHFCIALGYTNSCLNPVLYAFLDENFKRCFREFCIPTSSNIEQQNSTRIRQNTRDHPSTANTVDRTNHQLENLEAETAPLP
Summary of the method: as §1

Human κ-Opioid (KOP) = target: T5, Human κ-Opioid (KOP) (Homo sapiens, UniProt P41145); assay: Radioligand binding, human κ-opioid (KOP) membranes, filtration, [3H]-Diprenorphine; settings: compound at 10 μM, [3H]-Diprenorphine, human KOP membranes
T5 construct: purchased Perkin Elmer Biosignal
T5 sequence (P41145 whole entry): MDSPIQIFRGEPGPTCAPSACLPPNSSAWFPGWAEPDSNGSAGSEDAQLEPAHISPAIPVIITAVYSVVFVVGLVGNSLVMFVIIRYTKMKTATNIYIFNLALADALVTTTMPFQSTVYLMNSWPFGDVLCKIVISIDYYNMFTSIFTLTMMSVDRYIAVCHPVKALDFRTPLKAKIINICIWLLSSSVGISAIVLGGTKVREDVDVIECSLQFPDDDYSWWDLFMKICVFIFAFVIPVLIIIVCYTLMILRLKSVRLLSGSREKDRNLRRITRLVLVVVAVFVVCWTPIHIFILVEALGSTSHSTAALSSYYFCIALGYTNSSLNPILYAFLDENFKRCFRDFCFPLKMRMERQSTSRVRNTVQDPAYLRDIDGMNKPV
Summary of the method: as §2

Human Melanocortin (MC3) = target: T6, Human Melanocortin (MC3) (Homo sapiens, UniProt P41968); assay: Radioligand binding, human melanocortin MC3 membranes, FlashPlate, [125I]-NDP-αMSH; settings: compound at 10 μM; [125I]-NDP-αMSH, human MC3 membranes
T6 construct: purchased Perkin Elmer Biosignal
T6 sequence (P41968 whole entry): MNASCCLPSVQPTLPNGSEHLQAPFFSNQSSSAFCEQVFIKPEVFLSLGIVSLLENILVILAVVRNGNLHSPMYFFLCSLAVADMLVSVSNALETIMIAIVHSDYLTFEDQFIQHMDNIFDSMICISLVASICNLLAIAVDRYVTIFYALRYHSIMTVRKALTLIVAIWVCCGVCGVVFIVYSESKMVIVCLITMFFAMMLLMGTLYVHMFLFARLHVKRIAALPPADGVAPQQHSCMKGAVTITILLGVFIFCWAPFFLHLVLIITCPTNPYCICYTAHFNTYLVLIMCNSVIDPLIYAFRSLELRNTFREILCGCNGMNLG
Summary of the method: as §1

Human melanocortin (MC5) = target: T7, Human melanocortin (MC5) (Homo sapiens, UniProt P33032); assay: Radioligand binding, human melanocortin MC5 membranes, FlashPlate, [125I]-NDP-αMSH; settings: compound at 10 μM; [125I]-NDP-αMSH, human MC5 membranes
T7 construct: purchased Perkin Elmer Biosignal
T7 sequence (P33032 whole entry): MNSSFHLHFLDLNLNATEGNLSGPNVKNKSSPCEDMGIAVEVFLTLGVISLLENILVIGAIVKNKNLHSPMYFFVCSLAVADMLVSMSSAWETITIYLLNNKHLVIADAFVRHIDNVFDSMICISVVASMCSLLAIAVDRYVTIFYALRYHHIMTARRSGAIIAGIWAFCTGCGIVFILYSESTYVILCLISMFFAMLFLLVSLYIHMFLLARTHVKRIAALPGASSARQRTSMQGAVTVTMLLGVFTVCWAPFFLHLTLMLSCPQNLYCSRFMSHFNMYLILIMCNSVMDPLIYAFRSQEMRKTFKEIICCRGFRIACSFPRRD
Summary of the method: as §1

[2] = target: T8, Human melanin-concentrating hormone (MCH1) (Homo sapiens, UniProt Q99705); assay: Radioligand binding, human melanin-concentrating hormone MCH1 membranes, FlashPlate, [125I]-S36057; settings: compound at 10 μM; [125I]-S36057, human MCH1 membranes
T8 construct: purchased Perkin Elmer Biosignal
T8 sequence (Q99705 whole entry): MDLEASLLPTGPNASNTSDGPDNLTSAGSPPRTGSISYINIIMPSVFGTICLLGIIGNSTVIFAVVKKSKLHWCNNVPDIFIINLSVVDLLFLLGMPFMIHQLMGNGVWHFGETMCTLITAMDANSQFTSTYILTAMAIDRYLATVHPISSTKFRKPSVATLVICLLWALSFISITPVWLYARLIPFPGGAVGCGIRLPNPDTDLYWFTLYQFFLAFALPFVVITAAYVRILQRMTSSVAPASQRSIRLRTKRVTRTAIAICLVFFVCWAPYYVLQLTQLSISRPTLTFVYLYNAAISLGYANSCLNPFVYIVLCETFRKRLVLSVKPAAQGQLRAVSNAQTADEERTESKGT
Summary of the method: as §1

Human δ-opioid (DOP) = target: T9, Human δ-opioid (DOP) (Homo sapiens, UniProt P41143); assay: Radioligand binding, human δ-opioid (DOP) membranes, FlashPlate, [3H]-Bremazocine; settings: compound at 10 μM; [3H]-Bremazocine, human DOP membranes
T9 construct: purchased Perkin Elmer Biosignal
T9 sequence (P41143 whole entry): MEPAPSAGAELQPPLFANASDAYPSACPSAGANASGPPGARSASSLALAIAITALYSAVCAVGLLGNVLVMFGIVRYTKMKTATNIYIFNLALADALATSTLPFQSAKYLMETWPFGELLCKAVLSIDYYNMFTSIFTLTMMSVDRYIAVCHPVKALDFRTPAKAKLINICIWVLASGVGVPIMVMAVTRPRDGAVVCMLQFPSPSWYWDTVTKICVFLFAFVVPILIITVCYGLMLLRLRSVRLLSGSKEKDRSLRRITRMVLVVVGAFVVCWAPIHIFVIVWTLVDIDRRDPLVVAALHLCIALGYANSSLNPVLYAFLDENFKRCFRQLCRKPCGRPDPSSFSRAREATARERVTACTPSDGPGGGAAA
Summary of the method: as §1

Human Melanocortin (MC4) = target: T10, Human Melanocortin (MC4) (Homo sapiens, UniProt P32245); assay: Radioligand binding, human melanocortin MC4 membranes, FlashPlate, [125I]-NDP-αMSH; settings: compound at 10 μM; [125I]-NDP-αMSH, human MC4 membranes
T10 construct: purchased Perkin Elmer Biosignal
T10 sequence (P32245 whole entry): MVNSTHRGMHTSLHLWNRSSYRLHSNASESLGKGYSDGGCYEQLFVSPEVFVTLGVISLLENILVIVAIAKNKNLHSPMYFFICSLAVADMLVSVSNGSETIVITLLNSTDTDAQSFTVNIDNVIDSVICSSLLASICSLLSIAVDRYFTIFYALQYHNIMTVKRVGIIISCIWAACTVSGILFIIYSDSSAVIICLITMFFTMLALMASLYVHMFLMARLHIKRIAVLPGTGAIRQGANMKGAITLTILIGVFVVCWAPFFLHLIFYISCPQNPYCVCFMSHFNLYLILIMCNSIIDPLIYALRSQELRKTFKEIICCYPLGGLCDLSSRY
Summary of the method: as §1

Human opioid (ORL1) = target: T11, Human opioid (ORL1) (Homo sapiens, UniProt P41146); assay: Radioligand binding, human opioid ORL1 membranes, FlashPlate, [125I]-Nociceptin; settings: compound at 10 μM, [125I]-Nociceptin, human ORL1 membranes
T11 construct: purchased Perkin Elmer Biosignal
T11 sequence (P41146 whole entry): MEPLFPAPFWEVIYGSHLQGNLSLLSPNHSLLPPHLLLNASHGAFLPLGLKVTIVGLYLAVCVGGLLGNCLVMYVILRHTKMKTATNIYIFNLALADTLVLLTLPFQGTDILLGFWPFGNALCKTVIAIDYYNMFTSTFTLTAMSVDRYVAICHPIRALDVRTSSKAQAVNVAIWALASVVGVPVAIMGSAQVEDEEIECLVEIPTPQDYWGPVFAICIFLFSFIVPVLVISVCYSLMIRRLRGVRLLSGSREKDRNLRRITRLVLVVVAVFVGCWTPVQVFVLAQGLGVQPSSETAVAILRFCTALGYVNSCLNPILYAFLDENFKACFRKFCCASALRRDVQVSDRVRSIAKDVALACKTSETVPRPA
Summary of the method: as §1

Row | Structure (SMILES) | A11: inhibition of radioligand binding (Mouse urotensin (mUR2)) | A9: inhibition of radioligand binding [1] | A8: inhibition of radioligand binding (Human neurokinin (NK1)) | A7: inhibition of radioligand binding (Human μ-opioid (MOP); 10 µM) | A2: inhibition of radioligand binding (Human κ-Opioid (KOP); 10 µM) | A3: inhibition of radioligand binding (Human Melanocortin (MC3)) | A5: inhibition of radioligand binding (Human melanocortin (MC5)) | A6: inhibition of radioligand binding [2] | A1: inhibition of radioligand binding (Human δ-opioid (DOP)) | A4: inhibition of radioligand binding (Human Melanocortin (MC4)) | A10: inhibition of radioligand binding (Human opioid (ORL1); 10 µM) | A7: inhibition of radioligand binding (Human μ-opioid (MOP)) | A2: inhibition of radioligand binding (Human κ-Opioid (KOP)) | A10: inhibition of radioligand binding (Human opioid (ORL1))
1 | NCCCC(=O)NC1C(OCc2ccc3ccccc3c2)OC(COCc2ccc3ccccc3c2)C(O)C1OCc1ccc(Cl)cc1 (single isomer, unassigned) [compound 455] | − (“−” indicates less than 50% inhibition at 10 μM) | − (“−” indicates less than 50% inhibition at 10 μM) | + (“+” indicates greater than 50% inhibition at 10 μM) | + (“+” indicates greater than 50% inhibition at 10 μM) | + (“+” indicates greater than 50% inhibition at 10 μM) | + (“+” indicates greater than 50% inhibition at 10 μM) | + (“+” indicates greater than 50% inhibition at 10 μM) | + (“+” indicates greater than 50% inhibition at 10 μM) | − (“−” indicates less than 50% inhibition at 10 μM) | + (“+” indicates greater than 50% inhibition at 10 μM) | − (“−” indicates less than 50% inhibition at 10 μM) | – | – | –
2 | N=C(N)NCCC(=O)NC1C(OCc2ccc(Cl)cc2)OC(COCc2ccc(Cl)cc2)C(O)C1OCc1ccc(-c2ccccc2)cc1 (stereo not drawn) [compound 434] | − (“−” indicates less than 50% inhibition at 10 μM) | − (“−” indicates less than 50% inhibition at 10 μM) | + (“+” indicates greater than 50% inhibition at 10 μM) | – | – | + (“+” indicates greater than 50% inhibition at 10 μM) | + (“+” indicates greater than 50% inhibition at 10 μM) | + (“+” indicates greater than 50% inhibition at 10 μM) | − (“−” indicates less than 50% inhibition at 10 μM) | + (“+” indicates greater than 50% inhibition at 10 μM) | – | − (“−” indicates less than 50% inhibition at 10 μM) | − (“−” indicates less than 50% inhibition at 10 μM) | − (“−” indicates less than 50% inhibition at 10 μM)
3 | NCCC(=O)NC1C(OCc2ccc3ccccc3c2)OC(COCc2ccc(Cl)cc2)C(O)C1OCc1ccc(Cl)cc1 (stereo not drawn) [compound 383] | − (“−” indicates less than 50% inhibition at 10 μM) | − (“−” indicates less than 50% inhibition at 10 μM) | + (“+” indicates greater than 50% inhibition at 10 μM) | – | – | + (“+” indicates greater than 50% inhibition at 10 μM) | + (“+” indicates greater than 50% inhibition at 10 μM) | − (“−” indicates less than 50% inhibition at 10 μM) | − (“−” indicates less than 50% inhibition at 10 μM) | + (“+” indicates greater than 50% inhibition at 10 μM) | – | − (“−” indicates less than 50% inhibition at 10 μM) | − (“−” indicates less than 50% inhibition at 10 μM) | − (“−” indicates less than 50% inhibition at 10 μM)
